Laboratory results reported in patent publication US3947411A, “Novel 1-aryl-2-arylalkyl-3-or-4-[4'-(substituted-alkyl)piperazino-1']butanols- 2-or-butenes-1, and methods of manufacture thereof” (Warner-Lambert Company, priority 1972, dated 1976).
Values after ≈ are worked out from the molar mass of the structure shown.

Assays:
[1] = Solubility in water; type: physicochemical; conditions: hydrochlorides or oxalates, read-out: solubilities (in water)
Method: The following list contains examples of those compounds which are made according to the methods disclosed. (The individual compounds are identified by elementary analyses and infrared spectra, by ultra-violet or nuclear resonance spectra, if necessary.) Individual melting points and solubilities (in water) are also given as is the method by which each compound is prepared.
The melting points and solubilities are given for the Hydrochlorides I - XVI; XVIII - XXVII; XXIX - XXXV; XXXVII - XLII; XLIV - LXII; LXIV - LXVII, and the Oxalates XVII; […]; XXXVI; LXIII.

[2] = test system: Aspergillus niger; test: Agar well inhibition zone test against fungi, Aspergillus niger (Table II); conditions: quantity per well giving inhibition zone (500, 50, 5 μg tested); Sabouraud agar, 28°, 48 hours
[3] = test system: Staphylococcus aureus; test: Agar well inhibition zone test against bacteria, Staphylococcus aureus (Table III); conditions: quantity per well giving inhibition zone (500, 50, 5 μg tested); nutrient agar, 37°, 24 hours
[4] = test system: Candida albicans; test: Agar well inhibition zone test against fungi, Candida albicans (Table II); conditions: quantity per well giving inhibition zone (500, 50, 5 μg tested); Sabouraud agar, 28°, 48 hours
[5] = test system: Escherichia coli; test: Agar well inhibition zone test against bacteria, Escherichia coli (Table III); conditions: quantity per well giving inhibition zone (500, 50, 5 μg tested); nutrient agar, 37°, 24 hours

solubility [1] [µg/mL]	Compound	Inhibition Area at μg, Asp. niger [2] [µg]	Inhibition Area at μg, Staph. aureus [3] [µg]	Inhibition Area at μg, Cand. albicans [4] [µg]	Inhibition Area at μg, E. coli [5] [µg]
< 10000	CC(N1CCN(c2ccccc2)CC1)C(O)(Cc1ccccc1)Cc1ccccc1 (centres unmarked) [LII, 1-phenyl-2-benzyl-3-(4'-phenyl-piperazino-1')-butanol-2]	> 500	> 500	> 500	> 500
10000 (≈ 24.1 mM)	CC(N1CCN(Cc2ccccc2)CC1)C(O)(Cc1ccccc1)Cc1ccccc1 (centres unmarked) [LIII, 1-phenyl-2-benzyl-3-(4'-benzyl-piperazino-1')-butanol-2]	> 500	> 500	> 500	> 500
10000 (≈ 23.3 mM)	Cc1cccc(CN2CCN(C(C)C(O)(Cc3ccccc3)Cc3ccccc3)CC2)c1 (centres unmarked) [LIV, 1-phenyl-2-benzyl-3-(4'-m-methyl-benzyl-piperazino-1')-butanol-2]	> 500	> 500	> 500	> 500
< 10000	CN1CCN(CC(O)(Cc2ccccc2)Cc2ccccc2)CC1 [LV, 1-phenyl-2-benzyl-3-(4'-methyl-piperazino-1')-propanol-2]	> 500	> 500	> 500	> 500
10000 (≈ 29.5 mM)	CN1CCN(CCC(O)(Cc2ccccc2)Cc2ccccc2)CC1 [LVI, 1-phenyl-2-benzyl-4-(4'-methyl-piperazino-1')-butanol-2]	500	500	500	500
< 10000	OC(CCN1CCN(c2ccccc2)CC1)(Cc1ccccc1)Cc1ccccc1 [LVII, 1-phenyl-2-benzyl-4-(4'-phenyl-piperazino-1')-butanol-2]	> 500	> 500	> 500	500
100000 (≈ 197 mM)	CN1CCN(CCCCCCN2CCN(CCC(O)(Cc3ccccc3)Cc3ccccc3)CC2)CC1 [LXI, 1-phenyl-2-benzyl-4-{4'-[w-(4"-methyl-piperazino-1")-n-hexyl]-piperazino-1'}-butanol-2]	> 500	> 500	> 500	> 500
100000 (≈ 271 mM)	CC(N1CCN(CCO)CC1)C(O)(Cc1ccccc1)Cc1ccccc1 (stereo not drawn) [XLVI, 1-phenyl-2-benzyl-3-[4'-(β-hydroxyethyl)-piperazino-1']-butanol-2]	500	500	500	> 500
50000 (≈ 91.3 mM)	CC(N1CCN(CCN(Cc2ccccc2)Cc2ccccc2)CC1)C(O)(Cc1ccccc1)Cc1ccccc1 (stereo not drawn) [XVI, 1-phenyl-2-benzyl-3-[4'-(β-dibenzylamino-ethyl)-piperazino-1']-butanol-2]	> 500	> 500	> 500	> 500
100000 (≈ 206 mM)	CCN(CCN1CCN(C(C)C(O)(Cc2ccccc2)Cc2ccccc2)CC1)Cc1ccccc1 (stereo not drawn) [XVII, 1-phenyl-2-benzyl-3-[4'-(β-N-ethyl-N-benzyl-aminoethyl)-piperazino-1']-butanol-2]	500	> 500	500	> 500
